Structures can show the parent of a compound that is named as a salt. Where two headings read alike, the source gives them in different places.
What was measured:
[1] = 1 h, pH 7.4
[2] = system: pseudotyped VSV expressing SUDV glycoprotein; assay: microbe, parasite or virus in culture; assay type: cell-based, Sudan virus (SUDV); details: read-out: EC50 (uM) Pseudotype Assays SUDV
[3] = 1 h, pH 7.4; remark: listed apart in the source
[4] = 1 h, pH 7.4; remark: listed apart in the source
[5] = system: pseudotyped VSV expressing EBOV glycoprotein; assay: microbe, parasite or virus in culture; assay type: cell-based, Ebola virus (EBOV); details: read-out: EC50 (uM) Pseudotype Assays EBOV
in vitro = details: African green monkey
[6] = system: pseudotyped VSV expressing MARV glycoprotein; assay: microbe, parasite or virus in culture; assay type: cell-based, Marburg virus (MARV); details: Vesicular stomatitis virus, Vero, 24 h, read-out: EC50 (uM) Pseudotype Assays MARV
[7] = 1 h, pH 7.4; remark: listed apart in the source
[8] = system: pseudotyped VSV expressing BDBV glycoprotein; assay: microbe, parasite or virus in culture; assay type: cell-based, Bundibugyo virus (BDBV); details: Vesicular stomatitis virus, Vero, 24 h, read-out: EC50 (uM) Pseudotype Assays BDBV
WT EBOV-Mayinga = assay: microbe, parasite or virus in culture; assay type: cell-based, Ebola virus (EBOV); details: Zaire ebolavirus
[9] = Vesicular stomatitis virus, Vero, 24 h

Row | Compound | EC50 [2, 9] | EC50 ([5]; Zaire ebolavirus, Vero, 24 h) | CC50 (in vitro) | EC50 [6] | EC50 [8] | other results
1 | N[C@H]1CC[C@H](NC(=O)C23CC4CC(CCl)(C2)CC(c2ccccc2)(C4)C3)CC1 (mixture of isomers) [Example E1, rac-trans-N-(4-aminocyclohexyl)-3-(chloromethyl)-5-phenyladamantane-1-carboxamide hydrochloride] | 0.56 µM | 0.034 µM | 13.8 µM | > 1 µM | 0.12 µM | Percent parent compound remaining at 60 minutes in liver microsomes, Mouse [1]: 69%; Percent parent compound remaining at 60 minutes in liver microsomes, Guinea Pig [3]: 100%; Percent parent compound remaining at 60 minutes in liver microsomes, Human [4]: 89%; Percent parent compound remaining at 60 minutes in liver microsomes, Monkey [7]: 72%
2 | C[C@]12CC3CC(C(=S)N[C@H]4CN5CCC4CC5)(C1)C[C@@](c1ccccc1)(C3)C2 [Example A3] | 0.08 µM | 0.067 µM | 1.77 µM | > 1 µM | 0.29 µM | –
3 | N[C@H]1CC[C@H](NC(=S)C2C3CC4CC2CC(c2ccccc2)(C4)C3)CC1 (stereo partly drawn) [Example D1, trans-N-(4-aminocyclohexyl)-5-phenyladamantane-2-carbothioamide] | 0.29 µM | 0.21 µM | – | – | 0.3 µM | –
4 | CC1(C)CN(C(=S)C23CC4C[C@](C)(C2)C[C@@](c2ccccc2)(C4)C3)CC[C@@H]1N [Example B1] | 0.26 µM | 0.74 µM | – | – | 0.4 µM | –
5 | CC1(C)CN(C(=S)[C@@]23C[C@H]4C[C@@](C)(C2)C[C@](c2ccccc2)(C4)C3)CC[C@@H]1N [Example A1, ((S)-4-amino-3,3-dimethylpiperidin-1-yl)((1 S,3R,5R,7S)-3-methyl-5-phenyladamantan-1-yl)methanethione] | 0.043 µM | 0.061 µM | 3.8 µM | > 1 µM | 0.11 µM | Percent parent compound remaining at 60 minutes in liver microsomes, Guinea Pig [3]: 32%; Percent parent compound remaining at 60 minutes in liver microsomes, Human [4]: 72%; Percent parent compound remaining at 60 minutes in liver microsomes, Monkey [7]: 19%
6 | C[C@]12CC3CC(C(=S)N[C@H]4CC[C@H](CN)CC4)(C1)C[C@@](c1ccccc1)(C3)C2 [Example A7] | 0.095 µM | 0.075 µM | 2.86 µM | – | 0.09 µM | –
7 | N[C@H]1CC[C@H](NC(=O)C23CC4CC(c5ccccc5)(CC(C2)C4CCCl)C3)CC1 (stereo partly drawn) [Example H5, trans-N-(4-aminocyclohexyl)-6-(2-chloroethyl)-3-phenyladamantane-1-carboxamide] | 0.27 µM | 0.01 µM | 7.27 µM | – | – | Percent parent compound remaining at 60 minutes in liver microsomes, Mouse [1]: 35%; Percent parent compound remaining at 60 minutes in liver microsomes, Guinea Pig [3]: 80.5%; Percent parent compound remaining at 60 minutes in liver microsomes, Human [4]: 85%
8 | CCCC1C2CC3(C(=O)N[C@H]4CC[C@H](N)CC4)CC1CC(c1ccccc1)(C2)C3 (stereo partly drawn) [Example F3] | 0.39 µM | 0.005 µM | 4.65 µM | 1.6 µM | 0.08 µM | Percent parent compound remaining at 60 minutes in liver microsomes, Mouse [1]: 26%; Percent parent compound remaining at 60 minutes in liver microsomes, Guinea Pig [3]: 48%; Percent parent compound remaining at 60 minutes in liver microsomes, Human [4]: 91%; Percent parent compound remaining at 60 minutes in liver microsomes, Monkey [7]: 100%; EC50 (WT EBOV-Mayinga; read-out: WT EBOV-Mayinga EC50 (uM)): ~0.008 µM; EC90 (WT EBOV-Mayinga; read-out: WT EBOV-Mayinga EC90 (uM)): ~0.01 µM
9 | N[C@H]1CC[C@H](NC(=O)C23CC4CC(CSc5ccccc5)(C2)CC(c2ccccc2)(C4)C3)CC1 (mixture of isomers) [Example E7, rac-trans-N-(4-aminocyclohexyl)-3-phenyl-5-((phenylthio)methyl)adamantane-1-carboxamide] | > 1 µM | 0.056 µM | 4.75 µM | > 1 µM | 1.21 µM | –
10 | C[C@]12CC3CC(C(=S)N[C@H]4CC[C@@H](N)CC4)(C1)C[C@@](c1ccccc1)(C3)C2 [Example A5] | 0.125 µM | 0.12 µM | – | – | 0.19 µM | –
11 | CC(C)CC1C2CC3(C(=O)N[C@H]4CC[C@H](N)CC4)CC1CC(c1ccccc1)(C2)C3 (stereo partly drawn) [Example F4] | 0.86 µM | 0.016 µM | 5.8 µM | 1.38 µM | 0.3 µM | –
12 | N[C@H]1CC[C@H](NC(=O)C23CC4CC(c5ccccc5)(CC(C2)C4CC(F)F)C3)CC1 (stereo partly drawn) [Example H6, trans-N-(4-aminocyclohexyl)-6-(2,2-difluoroethyl)-3-phenyladamantane-1-carboxamide] | 0.18 µM | 0.02 µM | 22.2 µM | – | – | –
13 | N[C@H]1CC[C@H](NC(=O)C23CC4CC(c5ccccc5)(CC(C2)C4CCF)C3)CC1 (stereo partly drawn) [Example H4, trans-N-(4-aminocyclohexyl)-6-(2-fluoroethyl)-3-phenyladamantane-1-carboxamide] | 0.16 µM | 0.014 µM | 25.1 µM | – | – | Percent parent compound remaining at 60 minutes in liver microsomes, Mouse [1]: 39%; Percent parent compound remaining at 60 minutes in liver microsomes, Guinea Pig [3]: 80.5%; Percent parent compound remaining at 60 minutes in liver microsomes, Human [4]: 81%
14 | CSCC12CC3CC(C(=O)N[C@H]4CC[C@H](N)CC4)(C1)CC(c1ccccc1)(C3)C2 (mixture of isomers) [Example E6, rac-trans-N-(4-aminocyclohexyl)-3-((methylthio)methyl)-5-phenyladamantane-1-carboxamide] | 0.75 µM | 0.05 µM | 34.6 µM | > 1 µM | 0.6 µM | –
15 | CC12CC3CC(C(=S)N[C@H]4CC[C@H](N)CC4)(C1)CC(c1ccccc1)(C3)C2 (mixture of isomers) [Example C2] | 0.07 µM | 0.06 µM | – | – | 0.085 µM | –
16 | N[C@H]1CC[C@H](NC(=O)C23CC4CC(Br)(C2)CC(c2ccccc2)(C4)C3)CC1 (mixture of isomers) [Example E3, rac-trans-N-(4-aminocyclohexyl)-3-bromo-5-phenyladamantane-1-carboxamide] | 0.34 µM | 0.061 µM | – | – | 0.19 µM | Percent parent compound remaining at 60 minutes in liver microsomes, Guinea Pig [3]: 96%; Percent parent compound remaining at 60 minutes in liver microsomes, Human [4]: 97.5%; Percent parent compound remaining at 60 minutes in liver microsomes, Monkey [7]: 91%
17 | CC1(C)CN(C(=O)C23CC4CC(CSc5ccccc5)(C2)CC(c2ccccc2)(C4)C3)CC[C@@H]1N (mixture of isomers) [Example E8, rac-((S)-4-amino-3,3-dimethylpiperidin-1-yl)(3-phenyl-5-((phenylthio)methyl)adamantan-1-yl)methanone] | > 1 µM | 0.145 µM | – | > 1 µM | > 1 µM | –
18 | CC1(C)CN(C(=O)C23CC4CC(CCl)(C2)CC(c2ccccc2)(C4)C3)CC[C@@H]1N (mixture of isomers) [Example E2, rac-((S)-4-amino-3,3-dimethylpiperidin-1-yl)(3-(chloromethyl)-5-phenyladamantan-1-yl)methanone] | 0.165 µM | 0.057 µM | 36.9 µM | > 1 µM | 0.35 µM | –
19 | C[C@@]12CC3CC(C(=S)N[C@H]4CN5CCC4CC5)(C1)C[C@](c1ccccc1)(C3)C2 [Example B3] | 0.36 µM | 0.66 µM | – | > 1 µM | 0.31 µM | –
20 | CC1(O)C2CC3(C(=O)N[C@H]4CC[C@H](N)CC4)CC1CC(c1ccccc1)(C2)C3 (stereo partly drawn) [Example H2, trans-N-(4-aminocyclohexyl)-6-hydroxy-6-methyl-3-phenyladamantane-1-carboxamide] | – | – | – | – | – | EC50 [2]: > 1 µM; EC50 [5]: > 1 µM
21 | C[C@@]12CC3CC(C(=S)N[C@H]4CC[C@H](N)CC4)(C1)C[C@](c1ccccc1)(C3)C2 [Example B2] | 0.26 µM | 0.09 µM | 3.72 µM | – | 0.16 µM | –
22 | CCC1C2CC3(C(=O)N4CC[C@H](N)C(C)(C)C4)CC1CC(c1ccccc1)(C2)C3 (stereo partly drawn) [Example F5] | 0.1 µM | 0.046 µM | 12.3 µM | – | – | –
23 | CC12CC3CC(C(=S)N[C@H]4CN5CCC4CC5)(C1)CC(c1ccccc1)(C3)C2 (mixture of isomers) [Example C3] | 0.1 µM | 0.17 µM | – | – | 0.24 µM | –
24 | CC1(O)C2CC3(C(=O)N[C@H]4CC[C@H](N)CC4)CC1CC(c1ccccc1)(C2)C3 (stereo partly drawn) [Example H1, trans-N-(4-aminocyclohexyl)-6-hydroxy-6-methyl-3-phenyladamantane-1-carboxamide] | > 1 µM | > 1 µM | – | – | – | –
25 | CCC1(Cl)C2CC3(C(=O)N4CC[C@H](N)C(C)(C)C4)CC1CC(c1ccccc1)(C2)C3 (stereo partly drawn) [Example H3, ((S)-4-amino-3,3-dimethylpiperidin-1-yl)(6-chloro-6-ethyl-3-phenyladamantan-1-yl)methanone] | 0.17 µM | 0.063 µM | 14.7 µM | – | – | –
26 | C[C@]12CC3CC(C(=S)N4CCC(N)CC4)(C1)C[C@@](c1ccccc1)(C3)C2 [Example A4] | 0.04 µM | 0.085 µM | 4.09 µM | – | 0.06 µM | –
27 | C[C@]12CC3CC(C(=S)NC4CCNCC4)(C1)C[C@@](c1ccccc1)(C3)C2 [Example A6] | 0.08 µM | 0.064 µM | 4.72 µM | – | 0.085 µM | –
28 | CC12CC3CC(C(=S)N4CC[C@H](N)C(C)(C)C4)(C1)CC(c1ccccc1)(C3)C2 (mixture of isomers) [Example C1] | 0.035 µM | 0.06 µM | – | – | 0.085 µM | –
